Data on eleven molecules can be found in US10004701B2, “Methods and compositions for treating infection” (UNIVERSITY OF ROCHESTER, priority 2012, dated 2018).

Common to all, as to assay: AK assay 384-well format, Prestwick library screening
One assay concerns E. coli. It is filed as cell-based, Escherichia coli. As to conditions: 50 μM final drug concentration; for fold induction at 50 µM: Escherichia coli, 3 h.
The next assay has as its system E. cloacae. The format is cell-based, Enterobacter cloacae. As to conditions: 50 μM final drug concentration, cutoff for positive-scoring molecules 3-fold increase; for fold induction at 50 µM: Enterobacter cloacae, 3 h.
A further assay relates to K. pneumoniae. It is filed as cell-based, Klebsiella pneumoniae. As to conditions: 50 μM final drug concentration, cutoff for positive-scoring molecules 3-fold increase; for fold induction at 50 µM: Klebsiella pneumoniae, 3 h.
The subject of another assay is P. aeruginosa. The format is cell-based, Pseudomonas aeruginosa. As to conditions: 50 μM final drug concentration, cutoff for positive-scoring molecules 3-fold increase; for fold induction at 50 µM: Pseudomonas aeruginosa, 3 h.
The next assay concerns E. faecium. The format is cell-based, Enterococcus faecium. As to conditions: 50 μM final drug concentration, cutoff for positive-scoring molecules 3-fold increase; for fold induction at 50 µM: Enterococcus faecium, 3 h.
Assay [1] concerns A. baumannii strain 98-37-09. It is filed as cell-based, Acinetobacter baumannii. As to conditions: 50 μM final drug concentration, cutoff for positive-scoring molecules 3-fold increase; for fold induction at 50 µM: Acinetobacter baumannii, 983709, 3 h.
Assay [2] concerns S. aureus strain USA300-0114. It is filed as cell-based, Staphylococcus aureus. As to conditions: 50 μM final drug concentration, cutoff for positive-scoring molecules 3-fold increase; for fold induction at 50 µM: Staphylococcus aureus, USA300, 3 h.
Setting [3] is: 384-well format, cutoff for positive-scoring molecules 3-fold increase, read-out: AK-based Prestwick Library Screening Results, E. coli (increase in extracellular AK activity).
The mark [4] stands for this setting: 384-well format, read-out: AK-based Prestwick Library Screening Results, E. cloacae (increase in extracellular AK activity).
[5] abbreviates: 384-well format, read-out: AK-based Prestwick Library Screening Results, K. pneumoniae (increase in extracellular AK activity).
Setting [6] is: 384-well format, read-out: AK-based Prestwick Library Screening Results, P. aeruginosa (increase in extracellular AK activity).
The mark [7] stands for this setting: 384-well format, read-out: AK-based Prestwick Library Screening Results, E. faecium (increase in extracellular AK activity).
Where [8] appears, read: 384-well format, read-out: AK-based Prestwick Library Screening Results, A. baumannii (increase in extracellular AK activity).
Setting [9] is: 384-well format, read-out: AK-based Prestwick Library Screening Results, S. aureus (increase in extracellular AK activity).
Setting [10] is: planktonic E. coli, 384-well, cutoff for positive-scoring molecules 3-fold increase, read-out: AK-based Prestwick Library Screening Results: E. coli (increase in extracellular AK activity).
[11] abbreviates: planktonic E. cloacae, 384-well, read-out: AK-based Prestwick Library Screening Results: E. cloacae (increase in extracellular AK activity).
Setting [12] is: planktonic K. pneumoniae, 384-well, read-out: AK-based Prestwick Library Screening Results: K. pneumoniae (increase in extracellular AK activity).
The mark [13] stands for this setting: planktonic P. aeruginosa, 384-well, read-out: AK-based Prestwick Library Screening Results: P. aeruginosa (increase in extracellular AK activity).
[14] abbreviates: planktonic E. faecium, 384-well, read-out: AK-based Prestwick Library Screening Results: E. faecium (increase in extracellular AK activity).
The mark [15] stands for this setting: planktonic A. baumannii, 384-well, read-out: AK-based Prestwick Library Screening Results: A. baumannii (increase in extracellular AK activity).
Setting [16] is: planktonic S. aureus, 384-well, read-out: AK-based Prestwick Library Screening Results: S. aureus (increase in extracellular AK activity).

Where a name gives a salt, the structure may show the parent alone. Read-outs that look alike come from different tables or passages of the source.

With `O=C(CCCN1CCC(O)(c2ccc(Cl)cc2)CC1)c1ccc(F)cc1` [Haloperidol], the fold induction at 50 µM with E. coli (setting [3]) amounted to 0.9; with E. cloacae (setting [4]), 1.1; in the assay on K. pneumoniae (setting [5]), 0.6; in the assay on P. aeruginosa (setting [6]) it was 0.9; with E. faecium (setting [7]), 0.9; in assay [1] (setting [8]), 1. Besides, the fold induction at 50 µM in assay [2] (setting [9]) worked out at 0.8.
For the molecule `Nc1c2c(nc3ccccc13)CCCC2` [Tacrine hydrochloride hydrate], the fold induction at 50 µM in the assay on E. coli (setting [10]) was 0.5; in the assay on E. cloacae (setting [11]), 0.4; in the assay with K. pneumoniae (setting [12]), 0.4; in the assay on P. aeruginosa (setting [13]), 0.5; in the assay with E. faecium (setting [14]) it was 0.9; in assay [1] (setting [15]), 0.5. In assay [2] (setting [16]), the fold induction at 50 µM is 0.5.
For the molecule `CO[C@H]1C[C@H](O[C@H]2[C@H](C)[C@@H](O[C@@H]3O[C@H](C)C[C@H](N(C)C)[C@H]3OC(C)=O)[C@@H](C)C[C@@]3(CO3)C(=O)[C@H](C)[C@@H](OC(C)=O)[C@@H](C)[C@@H](C)OC(=O)[C@@H]2C)O[C@@H](C)[C@@H]1OC(C)=O` [Troleandomycin], the fold induction at 50 µM was determined as 0.9 with E. coli (setting [3]); 1.1 with E. cloacae (setting [4]); 0.6 in the assay on K. pneumoniae (setting [5]); 0.7 with P. aeruginosa (setting [6]); 1 with E. faecium (setting [7]); 0.8 in assay [1] (setting [8]). Also, in assay [2] (setting [9]), the fold induction at 50 µM is 6.5.
Take `CC(C)N(CCC(C(N)=O)(c1ccccc1)c1ccccn1)C(C)C` (centres unmarked) [Disopyramide]: the fold induction at 50 µM was determined as 0.9 in the assay with E. coli (setting [3]); 1 in the assay with E. cloacae (setting [4]); 0.6 in the assay on K. pneumoniae (setting [5]); 0.9 in the assay on P. aeruginosa (setting [6]); 0.9 in the assay with E. faecium (setting [7]); 0.9 in assay [1] (setting [8]). Also, the fold induction at 50 µM in assay [2] (setting [9]) amounted to 2.7.
Turning to `O=c1n(CCCN2CCN(c3cccc(Cl)c3)CC2)nc2ccccn12` [Trazodone hydrochloride], the fold induction at 50 µM was determined as 0.9 in the assay with E. coli (setting [10]); 1.3 in the assay with E. cloacae (setting [11]); 1 with K. pneumoniae (setting [12]); 1.2 with P. aeruginosa (setting [13]); 1 in the assay on E. faecium (setting [14]); 1 in assay [1] (setting [15]). Further, the fold induction at 50 µM in assay [2] (setting [16]) was found to be 0.9.
Consider `Cc1n[nH]c(=O)[nH]c1=O` [Azathymine, 6], for which, in the assay on E. coli (planktonic E. coli, 384-well, […]), the “AK-based Prestwick Library Screening Results: E. coli (increase in extracellular AK activity)” value worked out at 0.6. In addition, in the assay with E. cloacae (planktonic E. cloacae, 384-well), the “AK-based Prestwick Library Screening Results: E. cloacae (increase in extracellular AK activity)” value is reported as 0.6. In addition, the “AK-based Prestwick Library Screening Results: K. pneumoniae (increase in extracellular AK activity)” value in the assay with K. pneumoniae (planktonic K. pneumoniae, 384-well) stood at 0.5. The “AK-based Prestwick Library Screening Results: P. aeruginosa (increase in extracellular AK activity)” value in the assay with P. aeruginosa (planktonic P. aeruginosa, 384-well) turned out to be 0.6. The “AK-based Prestwick Library Screening Results: E. faecium (increase in extracellular AK activity)” value with E. faecium (planktonic E. faecium, 384-well) amounted to 0.9. For the same molecule, the “AK-based Prestwick Library Screening Results: A. baumannii (increase in extracellular AK activity)” value in assay [1] (planktonic A. baumannii, 384-well) stood at 0.5. Further, in assay [2] (planktonic S. aureus, 384-well), the “AK-based Prestwick Library Screening Results: S. aureus (increase in extracellular AK activity)” value is 0.4.
Regarding `COc1ccc2c(c1)c(CC(=O)O)c(C)n2C(=O)c1ccc(Cl)cc1` [Indomethacin], the fold induction at 50 µM in the assay with E. coli (setting [3]) is 0.9; in the assay on E. cloacae (setting [4]) it was 1.2; with K. pneumoniae (setting [5]), 0.8; with P. aeruginosa (setting [6]), 0.9; in the assay on E. faecium (setting [7]) it was 0.9; in assay [1] (setting [8]), 1. For the same molecule, the fold induction at 50 µM in assay [2] (setting [9]) worked out at 0.6.
Turning to `CN(Cc1cnc2nc(N)nc(N)c2n1)c1ccc(C(=O)N[C@@H](CCC(=O)O)C(=O)O)cc1` [Methotrexate], the fold induction at 50 µM with E. coli (planktonic E. coli, 384-well, […], read-out: AK-based Prestwick Library Screening Results: E. coli (increase in extracellular AK activity)) came out at 1.1; with E. cloacae (setting [11]) it was 1.3; in the assay on K. pneumoniae (setting [12]), 0.8; in the assay with P. aeruginosa (setting [13]) it was 1; in the assay on E. faecium (setting [14]), 0.8; in assay [1] (setting [15]), 1. Besides, in assay [2] (setting [16]), the fold induction at 50 µM was 0.9.
On to `CNC(=C[N+](=O)[O-])NCCSCc1ccc(CN(C)C)o1` [Ranitidine hydrochloride], for which the fold induction at 50 µM is 1.4 in the assay with E. coli (setting [10]); 1.5 in the assay on E. cloacae (setting [11]); 0.9 in the assay with K. pneumoniae (setting [12]); 1.3 in the assay on P. aeruginosa (setting [13]); 1.1 with E. faecium (setting [14]); 1.1 in assay [1] (setting [15]). Also, the fold induction at 50 µM in assay [2] (setting [16]) was 1.2.
For the molecule `CCN(CC)CCNC(=O)c1cc(S(C)(=O)=O)ccc1OC` [Tiapride hydrochloride], the fold induction at 50 µM came out at 1.4 in the assay on E. coli (setting [10]); 1.5 in the assay on E. cloacae (setting [11]); 0.9 with K. pneumoniae (setting [12]); 1.2 with P. aeruginosa (setting [13]); 1.1 in the assay with E. faecium (setting [14]); 1.1 in assay [1] (setting [15]). Further, the fold induction at 50 µM in assay [2] (setting [16]) is 1.
Consider `O=C(O)Cc1ccc(-c2ccccc2)cc1` [Felbinac], for which the fold induction at 50 µM with E. coli (planktonic, cutoff for positive-scoring molecules 3-fold increase, read-out: AK-based Prestwick Library Screening Results, E. coli (fold increase in extracellular AK activity)) worked out at 0.7; with E. cloacae (planktonic, read-out: AK-based Prestwick Library Screening Results, E. cloacae (fold increase in extracellular AK activity)) it was 1; in the assay on K. pneumoniae (planktonic, read-out: AK-based Prestwick Library Screening Results, K. pneumoniae (fold increase in extracellular AK activity)), 0.6; with P. aeruginosa (planktonic, read-out: AK-based Prestwick Library Screening Results, P. aeruginosa (fold increase in extracellular AK activity)), 0.7; in the assay with E. faecium (planktonic, read-out: AK-based Prestwick Library Screening Results, E. faecium (fold increase in extracellular AK activity)) it was 0.9; in assay [1] (planktonic, read-out: AK-based Prestwick Library Screening Results, A. baumannii (fold increase in extracellular AK activity)), 0.8. In addition, in assay [2] (planktonic, read-out: AK-based Prestwick Library Screening Results, S. aureus (fold increase in extracellular AK activity)), the fold induction at 50 µM was found to be 0.6.
